From PubChem BioAssay (NCI)
Several values for one entry are separate records, joined by “and”; a condition that tells them apart may be missing. Equal entries are not always repeated.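 Each compound was tested at five concentrations against cells in 96-well plates for 48 hours. GI50 = concentration required for 50% inhibition of growth. TGI is the concentration that stops growth completely.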

Assays:
Experiment in all cases: NCI anticancer screen, dose series, 48 h
A549 NSCLC = tested on: A549 NSCLC
HL-60(TB) leukemia = tested on: HL-60(TB) leukemia
MDA-MB-231 breast = tested on: MDA-MB-231 breast
MDA-N = tested on: MDA-N
NCI-H23 lung = tested on: NCI-H23 lung
NCI-H522 lung = tested on: NCI-H522 lung
OVCAR-8 ovarian = tested on: OVCAR-8 ovarian
SF-268 CNS = tested on: SF-268 CNS
SK-MEL-2 melanoma = tested on: SK-MEL-2 melanoma
SR leukemia = tested on: SR leukemia

C/C(=N/NC(=S)N1CCN(C(=S)N/N=C(/C)c2ccccn2)CC1)c1ccccn1
TGI (A549 NSCLC): > 100 µM
TGI (HL-60(TB) leukemia): 1.98 µM
TGI (MDA-MB-231 breast): > 100 µM
TGI (MDA-N): > 100 µM
TGI (NCI-H23 lung): > 81.9 µM
TGI (NCI-H522 lung): 99.2 µM
TGI (OVCAR-8 ovarian): > 100 µM
TGI (SF-268 CNS): 57 µM
TGI (SK-MEL-2 melanoma): > 100 µM

Cc1cc2nc(-c3c(N)ncc(C#N)c3-c3ccc(Cl)cc3)[nH]c2cc1C
GI50 (A549 NSCLC): 4.17 µM
TGI (A549 NSCLC): 24.9 µM
GI50 (MDA-MB-231 breast): 10.5 µM
TGI (MDA-MB-231 breast): 44.2 µM
GI50 (NCI-H23 lung): 8.1 µM
TGI (NCI-H23 lung): 30.7 µM
GI50 (NCI-H522 lung): 4.07 µM
TGI (NCI-H522 lung): 27.9 µM
GI50 (OVCAR-8 ovarian): 4.53 µM
TGI (OVCAR-8 ovarian): 29.6 µM
GI50 (SF-268 CNS): 19.8 µM
TGI (SF-268 CNS): 84.2 µM
GI50 (SK-MEL-2 melanoma): 20.4 µM
TGI (SK-MEL-2 melanoma): > 100 µM
GI50 (SR leukemia): 28.7 µM
TGI (SR leukemia): > 100 µM

COc1ccccc1NC(=S)N/N=C/c1ccccn1
TGI (A549 NSCLC): 34.7 µM
TGI (HL-60(TB) leukemia): 0.693 µM
TGI (MDA-MB-231 breast): > 60.1 µM
TGI (MDA-N): > 46.4 µM
TGI (NCI-H23 lung): 6.01 µM
TGI (NCI-H522 lung): 10.9 µM
TGI (OVCAR-8 ovarian): 12.9 µM
TGI (SF-268 CNS): 3.59 µM
TGI (SK-MEL-2 melanoma): 29.5 µM

COc1cc(CNC(=S)CCCCCCCCCCC(C)C)ccc1O
TGI (A549 NSCLC): > 100 µM
TGI (HL-60(TB) leukemia): 70.2 µM
TGI (MDA-MB-231 breast): > 100 µM
TGI (NCI-H23 lung): > 100 µM
TGI (OVCAR-8 ovarian): > 100 µM
TGI (SF-268 CNS): > 100 µM
TGI (SR leukemia): > 100 µM

C=C(C)[C@@H]1CC[C@]2(CO)CC[C@]3(C)[C@H](CC[C@@H]4[C@@](C)(CCCN)[C@H](C(=C)C)CC[C@]43C)[C@@H]12
GI50 (A549 NSCLC): 1.73 µM
TGI (A549 NSCLC): 3.43 µM
GI50 (HL-60(TB) leukemia): 1.78 µM
TGI (HL-60(TB) leukemia): 3.61 µM
GI50 (MDA-MB-231 breast): 1.75 µM
TGI (MDA-MB-231 breast): 3.19 µM
GI50 (SF-268 CNS): 1.53 µM
TGI (SF-268 CNS): 3.06 µM
GI50 (SR leukemia): 0.475 µM
TGI (SR leukemia): 2.14 µM

Cn1c(=O)n(CC2CS2)c2ccccc21 (centres undefined)
TGI (A549 NSCLC): > 100 µM
TGI (HL-60(TB) leukemia): > 100 µM
TGI (NCI-H522 lung): > 100 µM
TGI (SF-268 CNS): > 100 µM
TGI (SK-MEL-2 melanoma): > 100 µM
TGI (SR leukemia): > 100 µM

N#C/C(C(=O)Nc1ccccc1)=C(/N)N1CCCCC1
TGI (A549 NSCLC): > 100 µM
TGI (MDA-N): > 100 µM
TGI (NCI-H23 lung): > 100 µM
TGI (OVCAR-8 ovarian): > 100 µM
TGI (SK-MEL-2 melanoma): > 100 µM
TGI (SR leukemia): > 100 µM

CCC1(OC(=O)CN)C(=O)OCc2c1cc1n(c2=O)Cc2cc3cc4c(cc3nc2-1)OCO4 (centres undefined)
GI50 (A549 NSCLC): < 0.01 µM
TGI (A549 NSCLC): 1.2 µM and 0.347 µM
GI50 (HL-60(TB) leukemia): < 0.01 µM
GI50 (NCI-H23 lung): < 0.01 µM
TGI (NCI-H23 lung): 0.119 µM and 0.0337 µM
GI50 (NCI-H522 lung): 0.0531 µM and < 0.01 µM
TGI (NCI-H522 lung): 1.43 µM and 0.243 µM
GI50 (SF-268 CNS): < 0.01 µM
TGI (SF-268 CNS): > 100 µM
GI50 (SK-MEL-2 melanoma): 0.135 µM and 0.221 µM
TGI (SK-MEL-2 melanoma): 3.15 µM and 1.07 µM

CC(=O)O[C@H]1CCC2[C@@H]3CCC4NC(=O)C(C#N)C[C@]4(C)C3CC[C@@]21C (some centres undefined)
TGI (A549 NSCLC): > 10 µM
TGI (HL-60(TB) leukemia): > 10 µM
TGI (MDA-MB-231 breast): > 10 µM
TGI (MDA-N): > 10 µM
TGI (NCI-H23 lung): > 10 µM
TGI (OVCAR-8 ovarian): > 10 µM
TGI (SF-268 CNS): > 10 µM
TGI (SK-MEL-2 melanoma): > 10 µM
TGI (SR leukemia): > 10 µM

COc1ccc(NC(=O)CC(=O)N2N=C(N(c3ccccc3)c3ccccc3)CC2c2ccccc2)cc1 (centres undefined)
TGI (A549 NSCLC): > 100 µM
TGI (HL-60(TB) leukemia): > 100 µM
TGI (MDA-MB-231 breast): > 100 µM
TGI (NCI-H23 lung): > 100 µM
TGI (NCI-H522 lung): > 100 µM
TGI (OVCAR-8 ovarian): > 100 µM
TGI (SF-268 CNS): > 100 µM
TGI (SK-MEL-2 melanoma): > 100 µM

COC(=O)/C=c1/c2ccccc2n2c1c1ccccc1[n+]2C
TGI (A549 NSCLC): 24.1 µM
TGI (HL-60(TB) leukemia): 8.44 µM
TGI (MDA-MB-231 breast): 26 µM
TGI (MDA-N): 11.1 µM
TGI (NCI-H23 lung): 11.4 µM
TGI (OVCAR-8 ovarian): 15.7 µM
TGI (SF-268 CNS): 22.8 µM
TGI (SK-MEL-2 melanoma): 11.6 µM
